Tests used:
[1] = test system: fMLF-stimulated neutrophils; experiment: Superoxide anion generation in fMLF-stimulated neutrophils (ferricytochrome c reduction, OD550); type: cell-based; conditions: 1 μM, 3 μM and 10 μM of Palbociclib; human neutrophils stimulated with fMLF (0.1 μM)/cytochalasin B; compared with control; decreased with increasing concentration; FIG. 2A
Description: (§1) The informed consent to participate which was approved by the Institutional Review Board are signed by the donors. 50 mL of blood was collected from the median cubital vein of each donor by sterile vacutainer, and was used to isolate neutrophils for the following experiments.
(§2) Human neutrophils (isolated from whole blood of donors) were incubated with ddH2O (as solvent, marked as “−” in the groups at X-axis in FIGS. 2A and 2B) or Palbociclib (0.3-10 μM, dissolved in ddH2O) for 5 minutes, and then stimulated the neutrophils with or without fMLF (0.1 μM)/cytochalasin B (CB, 1 μg/ml) for another 10 minutes to activate the neutrophils. The absorbances (OD550 and OD450) of the reaction mixture were then measured by a spectrophotometer at OD 550 nm and OD 450 nm. The reading of OD550 is used to detect the reduction of ferricytochrome c, which indicates the amount of superoxide anion. The reading of OD450 is used to detect the status of Methoxysuccinyl-Ala-Ala-Val-p-nitroanilide (which is a specific substrate of elastase) affected by elastase, which indicates the release amount and activity of elastase. Cytochalasin B was sold by Sigma-Aldrich, catalog number #2506; fMLF was sold by Sigma-Aldrich, catalog number #454454; model number of the spectrophotometer is HITACHI U-3010. […]

PI3K p110δ/p85α = PI3K p110δ/p85α (Homo sapiens, UniProt O00329); experiment: PI3K p110δ/p85α enzymatic activity, Kinase-Glo Luminescent Kinase Assay; type: biochemical; conditions: 0.1 μM, 1 μM and 10 μM of Palbociclib; p<0.001 compared with control; activity decreased with increasing concentration; n=6; FIG. 1C
Description: (§3) Palbociclib was dissolved in ddH2O (as solvent) and then added to the reagents which contain PI3K p110α/p85α (50 ng/ml), PI3K p110β/p85α (150 ng/ml), or PI3K p110δ/p85α (50 ng/ml). The final concentration of Palbociclib was 0.1 to 30 μM. Then, the mixtures were incubated for 10 minutes at 25° C. The reagent which was added by ddH2O (solvent, marked as “−” in FIGS. 1A-1C) instead of Palbociclib was as a control in this experiment. 2.5X ATP/substrate was added to each reagent and then further incubated for 60 minutes. Finally, enzymatic activities of PI3K were analyzed according to the user manual of Kinase-Glo® Luminescent Kinase Assays (Promega Corporation, catalog number V1690) and luminometer (TECAN infinite 200 Pro) by using Kinase-Glo® Luminescent Kinase Assays.

[2] = test system: fMLF-stimulated neutrophils; experiment: Elastase release in fMLF-stimulated neutrophils (Methoxysuccinyl-Ala-Ala-Val-p-nitroanilide, OD450); type: cell-based; conditions: 3 μM and 10 μM of Palbociclib; human neutrophils stimulated with fMLF (0.1 μM)/cytochalasin B; compared with control; decreased with increasing concentration; FIG. 2B
Description: as §1, §2

PI3K p110α/p85α = PI3K p110α/p85α (Homo sapiens, UniProt P42336); experiment: PI3K p110α/p85α enzymatic activity, Kinase-Glo Luminescent Kinase Assay; type: biochemical; conditions: 3 μM, 10 μM and 30 μM of Palbociclib; p<0.001 compared with control; activity decreased with increasing concentration; n=6; FIG. 1A
Description: as §3

IMQ-treated mice = experiment: Psoriasis-like symptoms in IMQ-treated mice; type: in vivo, Male BALB/c mice
Description: 500 μg of Palbociclib was dissolved in 100 μl of 60% ethanol to make a pharmaceutical composition. The Palbociclib concentration of the pharmaceutical composition was 500 μg/100 μl and used in the subsequent animal experimental example 4. Male BALB/c mice (7-9 weeks of age, the body weight of each mouse is about 20 g) were divided into different groups, and each group has 6 mice. Each mouse was epilation on the back and then treated with 100 μl of solvent (60% ethanol) or 100 μl of the pharmaceutical composition prepared in example 3 (the concentration of Palbociclib is 25 mg/kg of body weight) by applying on the nude back skin before topical treatment of imiquimod (IMQ, sold by 3M Health Care Limited). And then applying with or without IMQ on the nude back skin of mice to cause psoriasis-like symptom. Each treatment was given once per day for 5 consecutive days. The mice which applying solvent and IMQ is played as the control. The mice which merely applying solvent or Palbociclib without IMQ are played as the blank 1 and blank 2.

PI3K p110β/p85α = PI3K p110β/p85α (Homo sapiens, UniProt P42338); experiment: PI3K p110β/p85α enzymatic activity, Kinase-Glo Luminescent Kinase Assay; type: biochemical; conditions: 3 μM, 10 μM and 30 μM of Palbociclib; p<0.001 compared with control; activity decreased with increasing concentration; n=6; FIG. 1B
Description: as §3

Chain of PI3K p110δ/p85α (O00329 whole entry): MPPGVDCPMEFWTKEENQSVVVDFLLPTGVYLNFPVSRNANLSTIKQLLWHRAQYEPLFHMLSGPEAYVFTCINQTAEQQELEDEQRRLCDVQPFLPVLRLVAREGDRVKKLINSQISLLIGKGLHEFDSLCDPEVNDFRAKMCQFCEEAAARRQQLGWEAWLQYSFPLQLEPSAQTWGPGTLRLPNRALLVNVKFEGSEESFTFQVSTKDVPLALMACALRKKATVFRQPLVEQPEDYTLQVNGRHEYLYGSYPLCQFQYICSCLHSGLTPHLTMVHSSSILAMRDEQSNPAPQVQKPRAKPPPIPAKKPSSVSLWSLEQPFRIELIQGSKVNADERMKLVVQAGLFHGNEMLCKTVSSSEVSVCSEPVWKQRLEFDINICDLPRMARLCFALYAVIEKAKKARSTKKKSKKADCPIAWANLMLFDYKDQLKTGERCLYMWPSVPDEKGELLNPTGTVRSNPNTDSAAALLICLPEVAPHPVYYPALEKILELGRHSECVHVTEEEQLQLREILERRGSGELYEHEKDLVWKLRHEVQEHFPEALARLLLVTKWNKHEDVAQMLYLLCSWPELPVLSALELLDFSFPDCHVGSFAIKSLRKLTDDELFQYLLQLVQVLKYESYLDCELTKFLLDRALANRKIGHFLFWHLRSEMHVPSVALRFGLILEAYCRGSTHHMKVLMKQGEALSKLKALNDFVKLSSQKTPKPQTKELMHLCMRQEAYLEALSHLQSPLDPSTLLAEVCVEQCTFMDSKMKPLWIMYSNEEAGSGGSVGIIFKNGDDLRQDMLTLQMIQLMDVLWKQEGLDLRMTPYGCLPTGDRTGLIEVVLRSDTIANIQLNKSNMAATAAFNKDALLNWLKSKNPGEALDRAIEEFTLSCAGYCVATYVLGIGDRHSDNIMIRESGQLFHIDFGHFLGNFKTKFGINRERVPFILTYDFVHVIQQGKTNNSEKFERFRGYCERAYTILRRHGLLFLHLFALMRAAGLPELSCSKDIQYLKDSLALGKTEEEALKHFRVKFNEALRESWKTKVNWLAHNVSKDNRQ
Chain of PI3K p110δ/p85α (P27986 whole entry partner): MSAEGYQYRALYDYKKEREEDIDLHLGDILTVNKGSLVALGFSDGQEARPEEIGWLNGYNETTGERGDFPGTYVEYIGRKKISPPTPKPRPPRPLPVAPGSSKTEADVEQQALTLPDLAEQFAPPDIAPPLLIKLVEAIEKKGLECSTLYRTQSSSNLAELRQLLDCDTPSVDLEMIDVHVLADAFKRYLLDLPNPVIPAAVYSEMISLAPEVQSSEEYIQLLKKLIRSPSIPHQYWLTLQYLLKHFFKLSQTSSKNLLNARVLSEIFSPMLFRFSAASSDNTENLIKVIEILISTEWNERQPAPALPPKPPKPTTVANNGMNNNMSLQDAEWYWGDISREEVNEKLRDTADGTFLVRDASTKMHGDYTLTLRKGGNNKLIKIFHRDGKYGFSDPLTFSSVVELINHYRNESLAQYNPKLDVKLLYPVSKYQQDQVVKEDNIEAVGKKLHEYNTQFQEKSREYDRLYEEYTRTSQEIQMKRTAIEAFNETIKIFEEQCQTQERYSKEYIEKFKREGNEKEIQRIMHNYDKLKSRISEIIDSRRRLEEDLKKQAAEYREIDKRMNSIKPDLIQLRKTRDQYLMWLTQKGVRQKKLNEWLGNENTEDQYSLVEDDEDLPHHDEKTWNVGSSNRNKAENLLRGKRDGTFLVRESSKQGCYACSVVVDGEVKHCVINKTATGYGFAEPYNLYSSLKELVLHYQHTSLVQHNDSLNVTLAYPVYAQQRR
Chain of PI3K p110α/p85α (P42336 whole entry): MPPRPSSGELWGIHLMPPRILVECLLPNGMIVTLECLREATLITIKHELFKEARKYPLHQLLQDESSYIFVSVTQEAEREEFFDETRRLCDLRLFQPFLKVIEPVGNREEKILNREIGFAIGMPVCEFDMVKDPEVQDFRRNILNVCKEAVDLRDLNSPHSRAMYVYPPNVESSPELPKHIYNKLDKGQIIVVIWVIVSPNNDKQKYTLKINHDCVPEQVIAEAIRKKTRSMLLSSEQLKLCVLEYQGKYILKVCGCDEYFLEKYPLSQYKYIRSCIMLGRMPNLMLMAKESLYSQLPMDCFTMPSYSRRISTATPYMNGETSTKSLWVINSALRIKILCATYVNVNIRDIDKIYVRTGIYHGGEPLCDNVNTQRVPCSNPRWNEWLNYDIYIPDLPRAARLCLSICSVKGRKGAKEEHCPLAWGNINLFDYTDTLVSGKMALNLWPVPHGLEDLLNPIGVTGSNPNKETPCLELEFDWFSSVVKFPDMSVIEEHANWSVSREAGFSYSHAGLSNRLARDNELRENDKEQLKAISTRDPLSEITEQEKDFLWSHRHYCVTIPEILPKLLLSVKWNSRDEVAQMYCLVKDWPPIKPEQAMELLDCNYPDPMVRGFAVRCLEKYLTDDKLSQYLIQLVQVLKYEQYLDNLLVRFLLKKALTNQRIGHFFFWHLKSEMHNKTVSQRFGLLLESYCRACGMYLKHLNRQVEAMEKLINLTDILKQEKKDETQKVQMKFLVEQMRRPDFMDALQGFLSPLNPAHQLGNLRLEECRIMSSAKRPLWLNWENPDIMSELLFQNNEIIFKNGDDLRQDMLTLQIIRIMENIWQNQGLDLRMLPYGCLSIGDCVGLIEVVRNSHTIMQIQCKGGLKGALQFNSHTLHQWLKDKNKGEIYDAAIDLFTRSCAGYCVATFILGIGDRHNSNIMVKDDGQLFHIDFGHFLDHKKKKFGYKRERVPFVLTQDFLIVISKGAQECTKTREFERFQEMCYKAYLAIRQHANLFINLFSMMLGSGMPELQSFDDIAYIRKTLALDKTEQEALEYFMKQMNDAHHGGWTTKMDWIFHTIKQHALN
Chain of PI3K p110α/p85α (P27986 whole entry partner): as the sequence (P27986 whole entry partner) above
Chain of PI3K p110β/p85α (P42338 whole entry): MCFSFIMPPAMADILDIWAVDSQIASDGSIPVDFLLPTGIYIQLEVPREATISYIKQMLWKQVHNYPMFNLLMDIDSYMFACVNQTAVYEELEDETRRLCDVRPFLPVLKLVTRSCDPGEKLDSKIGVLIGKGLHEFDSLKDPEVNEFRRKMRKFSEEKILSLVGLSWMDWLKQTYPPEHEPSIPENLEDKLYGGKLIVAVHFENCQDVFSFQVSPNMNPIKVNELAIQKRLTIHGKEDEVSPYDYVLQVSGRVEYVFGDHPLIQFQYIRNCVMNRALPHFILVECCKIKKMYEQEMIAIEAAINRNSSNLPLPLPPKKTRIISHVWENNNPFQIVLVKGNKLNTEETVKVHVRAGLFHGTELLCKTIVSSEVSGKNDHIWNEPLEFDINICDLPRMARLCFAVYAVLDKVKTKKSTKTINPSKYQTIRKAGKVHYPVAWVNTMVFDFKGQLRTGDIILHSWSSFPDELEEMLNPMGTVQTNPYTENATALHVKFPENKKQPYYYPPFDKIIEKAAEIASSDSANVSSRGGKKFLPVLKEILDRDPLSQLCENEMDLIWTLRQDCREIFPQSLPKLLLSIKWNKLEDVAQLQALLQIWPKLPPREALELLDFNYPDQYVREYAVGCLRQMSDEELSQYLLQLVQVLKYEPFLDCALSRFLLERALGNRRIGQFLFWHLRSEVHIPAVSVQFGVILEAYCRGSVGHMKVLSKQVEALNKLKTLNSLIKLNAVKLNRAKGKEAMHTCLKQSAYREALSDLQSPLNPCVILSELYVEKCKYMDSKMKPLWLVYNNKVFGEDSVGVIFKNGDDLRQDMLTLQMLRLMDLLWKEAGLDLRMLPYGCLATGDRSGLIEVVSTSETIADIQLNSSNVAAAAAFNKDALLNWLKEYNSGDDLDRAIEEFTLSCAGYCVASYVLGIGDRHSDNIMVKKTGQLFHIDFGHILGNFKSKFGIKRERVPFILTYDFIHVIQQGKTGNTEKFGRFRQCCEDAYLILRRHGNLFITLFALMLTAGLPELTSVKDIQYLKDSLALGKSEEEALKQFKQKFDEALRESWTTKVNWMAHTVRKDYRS
Chain of PI3K p110β/p85α (P27986 whole entry partner): as the sequence (P27986 whole entry partner) above

CC(=O)c1c(C)c2cnc(Nc3ccc(N4CCNCC4)cn3)nc2n(C2CCCC2)c1=O [Palbociclib, 6-acetyl-8-cyclopentyl-5-methyl-2-((5-(piperazin-1-yl)pyridin-2-yl)amino)pyrido [2,3-d]pyrimidin-7(8H)-one]
generation of superoxide anion [1]: significantly restrict
PI3K p110δ/p85α activity (PI3K p110δ/p85α): significantly inhibit
release of elastase [2]: significantly restrict
PI3K p110α/p85α activity (PI3K p110α/p85α): significantly inhibit
psoriasis-like symptoms (enlarged skin photos by handheld digital microscope, FIG. 3B) (IMQ-treated mice; Palbociclib 25 mg/kg topical on back skin and IMQ, once per day, after the treatment in 5th day, control shows symptoms from 3rd day): not observed
psoriasis-like symptoms (skin photos, FIG. 3A) (IMQ-treated mice; Palbociclib 25 mg/kg topical on back skin then IMQ, once per day for 5 days, compared with control (solvent and IMQ), 5th day): significantly improved
PI3K p110β/p85α activity (PI3K p110β/p85α): significantly inhibit
